From publication PMC9395488, “First-in-human study of IM156, a novel potent biguanide oxidative phosphorylation (OXPHOS) inhibitor, in patients with advanced solid tumors” (Investigational New Drugs, 2022)

Test system: patients with advanced solid tumors
Assay: First-in-human phase 1 dose-escalation study: safety, DLTs, adverse events
Assay type: in vivo
From the text: This multicenter first-in-human dose-escalation phase 1 study (clinicaltrials.gov identifier: NCT03272256) was designed to determine the MTD or RP2D and to evaluate the safety and tolerability of IM156. Secondary endpoints included PK characteristics, efficacy assessment (objective response rate [ORR], disease control rate [DCR], duration of response [DoR] and progression-free survival [PFS]). Furthermore, exploratory objectives included identification and profiling of IM156 metabolites, evaluations of exploratory PD markers of IM156, and evaluations of any potential relationship between putative biomarkers and safety/efficacy parameters of IM156. The study was conducted in accordance with Good Clinical Practice, the International Council for Harmonisation, and guidelines governing clinical study conduct and the ethical principles originating from the Declaration of Helsinki. The study was approved by each Institutional Review Board and patients provided written informed consent. Patients were enrolled at three sites in South Korea.
The initial dose and schedule of IM156 was chosen based on animal toxicology studies. […] IM156 was administered in the fasted state, with no food for at least 2 h before and 1 h after dosing.
Three DLT-evaluable patients were enrolled at each dose level. If there were no DLTs or other prohibitive adverse events (AEs), the Safety Committee was allowed to recommend escalation to the next highest dose level. If 1 DLT occurred in the first 3 DLT-evaluable patients, enrollment in that cohort was expanded to an additional 3 DLT-evaluable patients; if ≥ 2 DLTs were reported in a cohort, that dose was considered above the MTD.
Safety was assessed through vital signs, weight, laboratory assessments, physical examinations, electrocardiogram, and reporting of AEs as graded by the National Cancer Institute’s Common Terminology Criteria for Adverse Events v4.03 (NCI-CTCAE).
DLTs were defined as the following AEs if they were attributed as related to IM156: asymptomatic grade 4 neutropenia lasting for ≥ 5 days; febrile neutropenia, regardless of grade; grade 4 thrombocytopenia or grade 3 thrombocytopenia with bleeding; any grade ≥ 3 non-hematologic AE (except grade 3 hypertension and grade 3 nausea, vomiting or diarrhea for which proper measures for prevention and treatment were not implemented, and alopecia); blood lactate levels > 5 mmol; grade ≥ 2 AE prohibiting dosing of IM156 for ≥ 21 continuous days except for alterations in serum calcium or phosphorus levels. The safety analysis includes all patients who received at least one dose of study drug.
The safety population was defined as all patients who received at least one dose of IM156. The PK population was not defined in the protocol but included all patients with sufficient PK data to perform adequate PK modeling. The efficacy population included all patients who underwent at least one tumor imaging assessment while receiving IM156. Safety was assessed using descriptive statistics (e.g., DLTs, AEs, laboratory tests, physical examination, 12-lead ECG). The incidence and number of events were reported for the DLTs observed in Cycle 1 per dose group. […] Adverse events and TRAEs were standardized with the System Organ Class and the Preferred Term using the Medical Dictionary for Regulatory Activities v23.0. In addition, TEAEs, serious adverse events (SAEs), TEAE severity, and TEAEs leading to withdrawal were presented by dose group. Efficacy data were to be presented by Waterfall and Swim Lane plots. Time to event endpoints (e.g., DoR, PFS) were determined using Kaplan–Meier estimations with the median value for each endpoint summarized.

`NC(=Nc1ccc(OC(F)(F)F)cc1)N=C(N)N1CCCC1` [IM156] was tested, and the “TEAE Purpura grade 2” value (DL7 1200 mg orally daily (n=4)) was 0, the “TEAE Purpura grade 3” value (DL7 1200 mg orally daily (n=4)) was 0 and the “TEAE Purpura grade 4” value (DL7 1200 mg orally daily (n=4)) was 0. For the same compound, the “TEAE Urinary retention grade 1” value (DL7 1200 mg orally daily (n=4)) was 0, the “TEAE Urinary retention grade 2” value (DL7 1200 mg orally daily (n=4)) was 0 and the “TEAE Urinary retention grade 3” value (DL7 1200 mg orally daily (n=4)) was 0. For the same compound, the “TEAE Urinary retention grade 4” value (DL7 1200 mg orally daily (n=4)) was 0, the “TEAE Urinary tract disorder grade 1” value (DL7 1200 mg orally daily (n=4)) was 0 and the “TEAE Urinary tract disorder grade 2” value (DL7 1200 mg orally daily (n=4)) was 1. The “TEAE Urinary tract disorder grade 3” value (DL7 1200 mg orally daily (n=4)) was 0, the “TEAE Urinary tract disorder grade 4” value (DL7 1200 mg orally daily (n=4)) was 0 and the “TEAE Adrenal insufficiency grade 1” value (Total) was 0. The “TEAE Adrenal insufficiency grade 2” value (Total) was 1, the “TEAE Adrenal insufficiency grade 3” value (Total) was 0 and the “TEAE Adrenal insufficiency grade 4” value (Total) was 0. For the same compound, the “TEAE Anaemia grade 1” value (Total) was 0, the “TEAE Anaemia grade 2” value (Total) was 3 and the “TEAE Anaemia grade 3” value (Total) was 2. For the same compound, the “TEAE Anaemia grade 4” value (Total) was 0, the “TEAE Appendicitis perforated grade 1” value (Total) was 0 and the “TEAE Appendicitis perforated grade 2” value (Total) was 0. For the same compound, the “TEAE Appendicitis perforated grade 3” value (Total) was 1, the “TEAE Appendicitis perforated grade 4” value (Total) was 0 and the “TEAE Back pain grade 1” value (Total) was 0. For the same compound, the “TEAE Back pain grade 2” value (Total) was 2, the “TEAE Back pain grade 3” value (Total) was 0 and the “TEAE Back pain grade 4” value (Total) was 0. The “TEAE Cystitis grade 1” value (Total) was 0, the “TEAE Cystitis grade 2” value (Total) was 1 and the “TEAE Cystitis grade 3” value (Total) was 0. The “TEAE Cystitis grade 4” value (Total) was 0, the “TEAE Dry skin grade 1” value (Total) was 0 and the “TEAE Dry skin grade 2” value (Total) was 1. The “TEAE Dry skin grade 3” value (Total) was 0, the “TEAE Dry skin grade 4” value (Total) was 0 and the “TEAE Flank pain grade 1” value (Total) was 0. For the same compound, the “TEAE Flank pain grade 2” value (Total) was 1, the “TEAE Flank pain grade 3” value (Total) was 0 and the “TEAE Flank pain grade 4” value (Total) was 0. For the same compound, the “TEAE Hypertension grade 1” value (Total) was 0, the “TEAE Hypertension grade 2” value (Total) was 1 and the “TEAE Hypertension grade 3” value (Total) was 0. The “TEAE Hypertension grade 4” value (Total) was 0, the “TEAE Hypotension grade 1” value (Total) was 0 and the “TEAE Hypotension grade 2” value (Total) was 1. The “TEAE Hypotension grade 3” value (Total) was 0, the “TEAE Hypotension grade 4” value (Total) was 0 and the “TEAE Insomnia grade 1” value (Total) was 2. For the same compound, the “TEAE Insomnia grade 2” value (Total) was 1, the “TEAE Insomnia grade 3” value (Total) was 0 and the “TEAE Insomnia grade 4” value (Total) was 0. For the same compound, the “TEAE Pain in extremity grade 1” value (Total) was 1, the “TEAE Pain in extremity grade 2” value (Total) was 1 and the “TEAE Pain in extremity grade 3” value (Total) was 0. The “TEAE Pain in extremity grade 4” value (Total) was 0, the “TEAE Pruritus grade 1” value (Total) was 1 and the “TEAE Pruritus grade 2” value (Total) was 0. The “TEAE Pruritus grade 3” value (Total) was 0, the “TEAE Pruritus grade 4” value (Total) was 0 and the “TEAE Psychiatric disorders grade 1” value (Total) was 2. The “TEAE Psychiatric disorders grade 2” value (Total) was 1, the “TEAE Psychiatric disorders grade 3” value (Total) was 0 and the “TEAE Psychiatric disorders grade 4” value (Total) was 0. The “TEAE Purpura grade 1” value (Total) was 1, the “TEAE Purpura grade 2” value (Total) was 0 and the “TEAE Purpura grade 3” value (Total) was 0. For the same compound, the “TEAE Purpura grade 4” value (Total) was 0, the “TEAE Urinary retention grade 1” value (Total) was 0 and the “TEAE Urinary retention grade 2” value (Total) was 1. The “TEAE Urinary retention grade 3” value (Total) was 0, the “TEAE Urinary retention grade 4” value (Total) was 0 and the “TEAE Urinary tract disorder grade 1” value (Total) was 0. For the same compound, the “TEAE Urinary tract disorder grade 2” value (Total) was 1, the “TEAE Urinary tract disorder grade 3” value (Total) was 0 and the “TEAE Urinary tract disorder grade 4” value (Total) was 0. For the same compound, the “TRAE Abdominal Pain, > G3 (patients)” value (Total, N = 22) was 0, the “TRAE Abdominal Pain, All grades (patients)” value (Total, N = 22) was 2 and the “TRAE Blood Lactic Acid increased, > G3 (patients)” value (Total, N = 22) was 0. The “TRAE Blood Lactic Acid increased, All grades (patients)” value (Total, N = 22) was 2, the “TRAE Constipation, > G3 (patients)” value (Total, N = 22) was 0 and the “TRAE Constipation, All grades (patients)” value (Total, N = 22) was 2. The “TRAE Decreased appetite, > G3 (patients)” value (Total, N = 22) was 0, the “TRAE Diarrhoea, > G3 (patients)” value (Total, N = 22) was 0 and the “TRAE Diarrhoea, All grades (patients)” value (Total, N = 22) was 10. For the same compound, the “TRAE Fatigue, > G3 (patients)” value (Total, N = 22) was 0, the “TRAE Fatigue, All grades (patients)” value (Total, N = 22) was 4 and the “TRAE Insomnia, > G3 (patients)” value (Total, N = 22) was 0. For the same compound, the “TRAE Insomnia, All grades (patients)” value (Total, N = 22) was 2, the “TRAE Nausea, > G3 (patients)” value (Total, N = 22) was 3 and the “TRAE Nausea, All grades (patients)” value (Total, N = 22) was 15. The “TRAE Vomiting, > G3 (patients)” value (Total, N = 22) was 0, the “TRAE Vomiting, All grades (patients)” value (Total, N = 22) was 9 and the “TEAE Abdominal discomfort, grade 1” value (Total, all dose levels) was 1. The “TEAE Abdominal distension, grade 2” value (Total, all dose levels) was 1, the “TEAE Abdominal pain upper, grade 2” value (Total, all dose levels) was 1 and the “TEAE Abdominal pain, grade 1” value (Total, all dose levels) was 2. The “TEAE Abdominal pain, grade 2” value (Total, all dose levels) was 3, the “TEAE Abdominal pain, grade 3” value (Total, all dose levels) was 1 and the “TEAE Akathisia, grade 2” value (Total, all dose levels) was 1. For the same compound, the “TEAE Alanine aminotransferase increased, grade 1” value (Total, all dose levels) was 3, the “TEAE Alanine aminotransferase increased, grade 3” value (Total, all dose levels) was 1 and the “TEAE Ascites, grade 1” value (Total, all dose levels) was 1. For the same compound, the “TEAE Aspartate aminotransferase increased, grade 1” value (Total, all dose levels) was 2, the “TEAE Aspartate aminotransferase increased, grade 2” value (Total, all dose levels) was 1 and the “TEAE Aspartate aminotransferase increased, grade 3” value (Total, all dose levels) was 1. For the same compound, the “TEAE Asthenia, grade 1” value (Total, all dose levels) was 3, the “TEAE Blood alkaline phosphatase increased, grade 2” value (Total, all dose levels) was 1 and the “TEAE Blood alkaline phosphatase increased, grade 3” value (Total, all dose levels) was 1. For the same compound, the “TEAE Blood creatinine increased, grade 1” value (Total, all dose levels) was 3, the “TEAE Blood lactic acid increased, grade 1” value (Total, all dose levels) was 2 and the “TEAE Chest pain, grade 1” value (Total, all dose levels) was 1. The “TEAE Constipation, grade 1” value (Total, all dose levels) was 5, the “TEAE Constipation, grade 2” value (Total, all dose levels) was 1 and the “TEAE Cough, grade 1” value (Total, all dose levels) was 3. The “TEAE Decreased appetite, grade 1” value (Total, all dose levels) was 3, the “TEAE Decreased appetite, grade 2” value (Total, all dose levels) was 1 and the “TEAE Diarrhoea, grade 1” value (Total, all dose levels) was 9.
